Series [1] in a line: Solubility (Sol), medium not stated. Format: physicochemical. The following applies: cells not marked (FESSIF).
Series [2] in a line: FeSSIF solubility assay. Format: physicochemical. The following applies: fed state simulated intestinal fluid (FeSSIF), thermodynamic from solid, pH 5 acetate buffer, 37° C. How it is done:
FeSSIF Solubility Assay 1 mL of fed state simulated intestinal fluid (FeSSIF), prepared using FaSSIF/FeSSIF/FaSSGF powder (Biorelevant.com) and pH 5 acetate buffer, was added to 1.0 mg of compound and then incubated for 24 h (Bioshake iQ, 650 rpm, 37° C.). Following filtration under positive pressure, the concentration of compound in solution was assessed by LC-UV in comparison to the response for a calibration standard of known concentration (250 μM). FeSSIF solubility results are described in Tables 1-2.

The subject of series [3] is HCT-116 cells. The experiment in a line: HCT-116 CellTiter-Glo 3D cell proliferation assay. The following applies: Homo sapiens, HCT-116; HCT116 cells, 3D proliferation; read-out: 3D HCT116 pGI50 (converted). Format: cell-based. The protocol:
HCT-116 CellTiter-Glo 3D Cell Proliferation Assay
The human HCT-116 colorectal carcinoma cell line (ATCC CCL-247) endogenously expresses the KRAS^G13D mutation, which leads to enhanced survival and proliferative signaling. […] On the first day, HCT-116 cells were harvested, resuspended in growth medium (McCoys5A with Glutamax (Life Technologies 36600021) with 10% heat-inactivated fetal bovine serum (Sigma F9665)), and counted. Cells were plated in 100 μl per well in each well of a Corning 7007 96-well clear round bottom Ultra-Low Attachment plate (VWR 444-1020) to a final density of 1000 cells per well. Cells were seeded for pre- and post-treatment readouts. The cells were then incubated at 37° C. and 5% CO2 for 3 days (72 hours) to allow spheroid formation. After 72 hours, the plate seeded for a pre-treatment read was removed from the incubator to allow equilibration to room temperature for 30 minutes, before CellTitre-Glo® reagent was added to each well. The plates were incubated at room temperature for 5 minutes shaking at 300 rpm, followed by an incubation of 25 minutes on the benchtop before being read on the Envision reader (Perkin Elmer) as described below. On the same day, the cells plated for the post-treatment readout were dosed with compounds to produce a 9-point dose response, where the top concentration was 15 μM and following concentrations were at 1/2 log dilution intervals. These cells were subsequently incubated at 37° C. and 5% CO2 for another 4 days (96 hours). After 4 days, the plate was removed from the incubator to allow equilibration to room temperature for 30 minutes and treated with CellTitre Glo® reagent as stated above. […] The CellTitre Glo® reagent lyses the cells and contains luciferin and a luciferase (Ultra-Glo™ Recombinant Luciferase), which in the presence of ATP and oxygen can produce bioluminescence from luciferin. Therefore, plates were read on an EnVision reader (Perkin Elmer) and luminescence signals were recorded. Cell proliferation was determined on 4 days after dosing relative to the pre-treatment read. All data were analyzed using the Dotmatics or GraphPad Prism software packages. Inhibition of proliferation was assessed by determination of the GI50 value, which was defined as the concentration of compound required to decrease the level of cell proliferation by 50% when compared to DMSO control.
(In general: In ATP-based viability assays light output follows the ATP content of the culture.)

The subject of series [4] is WiDr cells. Put plainly: WiDr CellTiter-Glo 3D cell proliferation assay. Format: cell-based. The following applies: Homo sapiens; WiDr cells, 3D proliferation; read-out: 3D WiDr pGI50 (converted).

The text below walks through data of patent US12304912B2, “Fused bicyclic RAF inhibitors and methods for use thereof” (Jazz Pharmaceuticals Ireland Limited, priority 2020, dated 2025).

Values after ≈ are worked out from the molar mass of the structure shown. Structures can show the parent of a compound that is named as a salt. Where two headings read alike, the source gives them in different places. Where only a bound is given, the exact number is not on record here.

`O=C1CCc2c(Oc3ccc4c(c3)CC(c3nc5cc(C(F)(F)F)ncc5[nH]3)CO4)ccnc2N1` (racemic) [Compound 32] displayed a Sol in series [1] of less than 1.2 mg/L.

Take `O=C(Nc1cc(Oc2ccc3c(c2)CC(c2nc(-c4ccccc4)c[nH]2)CO3)ccn1)C1CC1` (racemic) [Compound 136]: the solubility thermodynamic at 24 h in series [2] (read-out: FESSIF Sol) was 17.1 µg/mL (≈ 37.8 µM). Also, the GI50 in series [3] is 47.9 nM; in series [4] it was 170 nM.

`O=C1CCc2c(Oc3ccc4c(c3)CC(c3nc(-c5cccc(C(F)(F)F)c5)c[nH]3)CO4)ccnc2N1` (centres unmarked) [Compound 12, 5-[3-[4-[3-(trifluoromethyl)phenyl]-1H-imidazol-2-yl]chroman-6-yl]oxy-3,4-dihydro-1H-1,8-naphthyridin-2-one] displayed a Sol in series [1] of less than 1.3 mg/L.

With `COc1cc(-c2c[nH]c(C3COc4ccc(Oc5ccnc6c5CCC(=O)N6)cc4C3)n2)ccn1` (centres unmarked) [Compound 19, 5-[3-[4-(2-methoxy-4-pyridyl)-1H-imidazol-2-yl]chroman-6-yl]oxy-3,4-dihydro-1H-1,8-naphthyridin-2-one], the solubility thermodynamic at 24 h in series [2] (read-out: Sol (FESSIF)) is 19.6 µg/mL (≈ 41.7 µM).

In series [1], `O=C1CCc2c(Oc3ccc4c(c3)CC(c3nc5cc(C(F)(F)F)ccc5[nH]3)CO4)ccnc2N1` (centres unmarked) [Compound 22, 5-[3-[6-(trifluoromethyl)-1H-benzimidazol-2-yl]chroman-6-yl]oxy-3,4-dihydro-1H-1,8-naphthyridin-2-one] displayed a Sol of less than 1.2 mg/L.

Turning to `O=C1CCc2c(Oc3ccc4c(c3)CC(c3nc5cc(F)c(F)cc5[nH]3)CO4)ccnc2N1` (centres unmarked) [Compound 23], the Sol in series [1] is less than 1.1 mg/L.

Molecule `N#Cc1ccc2[nH]c(C3COc4ccc(Oc5ccnc6c5CCC(=O)N6)cc4C3)nc2c1` (centres unmarked) [Compound 24] returned a Sol in series [1] of less than 1.1 mg/L.

On to `O=C1CCc2c(Oc3ccc4c(c3)CC(c3nc5cc(Cl)ccc5[nH]3)CO4)ccnc2N1` (centres unmarked) [Compound 25], for which the solubility thermodynamic at 24 h in series [2] (read-out: Sol (FESSIF)) was 1.8 µg/mL (≈ 4.03 µM).

In series [1], `CN(C)c1ccc2[nH]c(C3COc4ccc(Oc5ccnc6c5CCC(=O)N6)cc4C3)nc2c1` (centres unmarked) [Compound 26] came in with a Sol of less than 1.1 mg/L.

Turning to `Cc1cc2nc(C3COc4ccc(Oc5ccnc6c5CCC(=O)N6)cc4C3)[nH]c2cc1C` (centres unmarked) [Compound 29], in series [1], the Sol is recorded as less than 1.1 mg/L.

For `O=C1CCc2c(Oc3ccc4c(c3)CN(c3nc(-c5ccccc5)n[nH]3)CC4)ccnc2N1` [Compound 44, 5-[[2-(3-phenyl-1H-1,2,4-triazol-5-yl)-3,4-dihydro-1H-isoquinolin-7-yl]oxy]-3,4-dihydro-1H-1,8-naphthyridin-2-one hydrochloride], the Sol in series [1] is listed as less than 1.2 mg/L.

For `O=C(Nc1cc(Oc2ccc3c(c2)CC(c2nc(-c4ccccc4)c[nH]2)CO3)ccn1)C1CC1` (centres unmarked) [Compound 45, N-[4-[3-(4-phenyl-1H-imidazol-2-yl)chroman-6-yl]oxy-2-pyridyl]cyclopropanecarboxamide], the Sol in series [1] was less than 1.2 mg/L.

Turning to `O=C1CCc2c(Oc3ccc4c(c3)CN(C(=O)Nc3ccc(C(F)(F)F)cc3)CC4)ccnc2N1` [Compound 47], the solubility thermodynamic at 24 h in series [2] (read-out: Sol (FESSIF)) was 27.5 µg/mL (≈ 57 µM).

`O=C1CCc2c(Oc3ccc4c(c3)CN(C(=O)Nc3cccc(C(F)(F)F)c3)CC4)ccnc2N1` [Compound 50] came in with a Sol in series [1] of less than 1.2 mg/L.

Regarding `COc1cc(-c2c[nH]c(C3COc4ccc(Oc5ccnc6c5CCC(=O)N6)cc4C3)n2)ccn1` (centres unmarked) [Compound 104], the GI50 was 447 nM in series [3] and 1150 nM in series [4].

As for `Cn1nc(C(F)(F)F)cc1-c1c[nH]c(C2COc3ccc(Oc4ccnc5c4CCC(=O)N5)cc3C2)n1` (centres unmarked) [Compound 107, 5-[3-[4-[2-methyl-5-(trifluoromethyl)pyrazol-3-yl]-1H-imidazol-2-yl]chroman-6-yl]oxy-3,4-dihydro-1H-1,8-naphthyridin-2-one], the results for the GI50 in series [3] and in series [4] were 229 nM and 776 nM, respectively.

`Cc1cc(-c2c[nH]c(C3COc4ccc(Oc5ccnc6c5CCC(=O)N6)cc4C3)n2)n(C(C)C)n1` (centres unmarked) [Compound 112, 5-[3-[4-(2-isopropyl-5-methyl-pyrazol-3-yl)-1H-imidazol-2-yl]chroman-6-yl]oxy-3,4-dihydro-1H-1,8-naphthyridin-2-one]: in series [2] (read-out: FESSIF Sol), the solubility thermodynamic at 24 h was 51.1 µg/mL (≈ 105 µM).

Consider `CCc1cc(-c2c[nH]c(C3COc4ccc(Oc5ccnc6c5CCC(=O)N6)cc4C3)n2)n(C2CC2)n1` (centres unmarked) [Compound 113, 5-[3-[4-(2-cyclopropyl-5-ethyl-pyrazol-3-yl)-1H-imidazol-2-yl]chroman-6-yl]oxy-3,4-dihydro-1H-1,8-naphthyridin-2-one], for which the solubility thermodynamic at 24 h in series [2] (read-out: FESSIF Sol) was 140 µg/mL (≈ 281 µM).

In the case of `Cc1cc(-c2c[nH]c(C3COc4ccc(Oc5ccnc6c5CCC(=O)N6)cc4C3)n2)n(C2CC2)n1` (centres unmarked) [Compound 114, 5-[3-[4-(2-cyclopropyl-5-methyl-pyrazol-3-yl)-1H-imidazol-2-yl]chroman-6-yl]oxy-3,4-dihydro-1H-1,8-naphthyridin-2-one], the solubility thermodynamic at 24 h in series [2] (read-out: FESSIF Sol) is 497 µg/mL (≈ 1030 µM).

On to `CCc1cc(-c2c[nH]c(C3COc4ccc(Oc5ccnc6c5CCC(=O)N6)cc4C3)n2)ccn1` (centres unmarked) [Compound 118, 5-[3-[4-(2-ethyl-4-pyridyl)-1H-imidazol-2-yl]chroman-6-yl]oxy-3,4-dihydro-1H-1,8-naphthyridin-2-one], for which the GI50 was 398 nM in series [3] and 1170 nM in series [4].

As for `Cc1cc(-c2c[nH]c(C3COc4ccc(Oc5ccnc6c5CCC(=O)N6)cc4C3)n2)n(CC(F)(F)F)n1` (centres unmarked) [Compound 126, 5-[3-[4-[5-methyl-2-(2,2,2-trifluoroethyl)pyrazol-3-yl]-1H-imidazol-2-yl]chroman-6-yl]oxy-3,4-dihydro-1H-1,8-naphthyridin-2-one], the solubility thermodynamic at 24 h in series [2] (read-out: FESSIF Sol) is less than 1.3 µg/mL. In addition, the GI50 in series [4] is 15100 nM.

For `O=C1CCc2c(Oc3ccc4c(c3)CC(c3nc(-c5ccc(C(F)(F)F)nc5)c[nH]3)CO4)ccnc2N1` (centres unmarked) [Compound 127, 5-[3-[4-[6-(trifluoromethyl)-3-pyridyl]-1H-imidazol-2-yl]chroman-6-yl]oxy-3,4-dihydro-1H-1,8-naphthyridin-2-one], in series [2] (read-out: FESSIF Sol), the solubility thermodynamic at 24 h is 6 µg/mL (≈ 11.8 µM).

For the molecule `O=C1CCc2c(Oc3ccc4c(c3)CC(c3nc(-c5cccnc5C(F)(F)F)c[nH]3)CO4)ccnc2N1` (centres unmarked) [Compound 128, 5-[3-[4-[2-(trifluoromethyl)-3-pyridyl]-1H-imidazol-2-yl]chroman-6-yl]oxy-3,4-dihydro-1H-1,8-naphthyridin-2-one], the solubility thermodynamic at 24 h in series [2] (read-out: FESSIF Sol) was 1.6 µg/mL (≈ 3.15 µM).

As for `Cn1ncc2ccc(-c3c[nH]c(C4COc5ccc(Oc6ccnc7c6CCC(=O)N7)cc5C4)n3)cc21` (centres unmarked) [Compound 130, 5-[3-[4-(1-methylindazol-6-yl)-1H-imidazol-2-yl]chroman-6-yl]oxy-3,4-dihydro-1H-1,8-naphthyridin-2-one], the GI50 is 617 nM in series [3] and 1660 nM in series [4].

On to `O=C1CCc2c(Oc3ccc4c(c3)CC(c3nc5ccncc5[nH]3)CO4)ccnc2N1` (centres unmarked) [Compound 134, 5-[3-(3H-imidazo[4,5-c]pyridin-2-yl)chroman-6-yl]oxy-3,4-dihydro-1H-1,8-naphthyridin-2-one], for which the GI50 in series [3] is 15100 nM; in series [4], 25700 nM.

On to `O=C(Nc1cc(Oc2ccc3c(c2)CC(c2nc(-c4ccccc4)c[nH]2)CO3)ccn1)C1CC(F)(F)C1` (centres unmarked) [Compound 139], for which the solubility thermodynamic at 24 h in series [2] (read-out: FESSIF Sol) was 107 µg/mL (≈ 212 µM).

For the molecule `c1ccc(-c2c[nH]c(C3COc4ccc(Oc5ccnc(Nc6ccccn6)c5)cc4C3)n2)cc1` (centres unmarked) [Compound 140, 4-[3-(4-phenyl-1H-imidazol-2-yl)chroman-6-yl]oxy-N-(2-pyridyl)pyridin-2-amine], the GI50 is 1320 nM in series [3] and 1910 nM in series [4].

As to `O=C(CN1CC[C@@H](O)C1)Nc1cc(Oc2ccc3c(c2)CC(c2nc(-c4ccccc4)c[nH]2)CO3)ccn1` (some centres unmarked) [Compound 145], the GI50 in series [3] was 479 nM; in series [4] it was 6310 nM.
